Article PMC9571063 (Molecules, 2022)

Key:
Assay in all cases: KINOMEscan
Format in all cases: binding
Details in all cases: read-out: Percent Control
PRKG2 = biological target: T1, PRKG2 (Homo sapiens, UniProt Q13237)
T1 construct: purchased Eurofins DiscoverX KINOMEscan (scanMAX 468)

PRKG1 = biological target: T2, PRKG1 (Homo sapiens, UniProt Q13976)
T2 construct: purchased Eurofins DiscoverX KINOMEscan (scanMAX 468)

PIK3CA(Q546K) = biological target: T3, PIK3CA(Q546K) (Homo sapiens, UniProt P42336, Q546K)
T3 construct: purchased Eurofins DiscoverX KINOMEscan (scanMAX 468)

PKAC-beta = biological target: T4, PKAC-beta (Homo sapiens, UniProt P22694)
T4 construct: purchased Eurofins DiscoverX KINOMEscan (scanMAX 468)

MAP4K5 = biological target: T5, MAP4K5 (Homo sapiens, UniProt Q9Y4K4)
T5 construct: purchased Eurofins DiscoverX KINOMEscan (scanMAX 468)
T5 sequence (Q9Y4K4 whole entry): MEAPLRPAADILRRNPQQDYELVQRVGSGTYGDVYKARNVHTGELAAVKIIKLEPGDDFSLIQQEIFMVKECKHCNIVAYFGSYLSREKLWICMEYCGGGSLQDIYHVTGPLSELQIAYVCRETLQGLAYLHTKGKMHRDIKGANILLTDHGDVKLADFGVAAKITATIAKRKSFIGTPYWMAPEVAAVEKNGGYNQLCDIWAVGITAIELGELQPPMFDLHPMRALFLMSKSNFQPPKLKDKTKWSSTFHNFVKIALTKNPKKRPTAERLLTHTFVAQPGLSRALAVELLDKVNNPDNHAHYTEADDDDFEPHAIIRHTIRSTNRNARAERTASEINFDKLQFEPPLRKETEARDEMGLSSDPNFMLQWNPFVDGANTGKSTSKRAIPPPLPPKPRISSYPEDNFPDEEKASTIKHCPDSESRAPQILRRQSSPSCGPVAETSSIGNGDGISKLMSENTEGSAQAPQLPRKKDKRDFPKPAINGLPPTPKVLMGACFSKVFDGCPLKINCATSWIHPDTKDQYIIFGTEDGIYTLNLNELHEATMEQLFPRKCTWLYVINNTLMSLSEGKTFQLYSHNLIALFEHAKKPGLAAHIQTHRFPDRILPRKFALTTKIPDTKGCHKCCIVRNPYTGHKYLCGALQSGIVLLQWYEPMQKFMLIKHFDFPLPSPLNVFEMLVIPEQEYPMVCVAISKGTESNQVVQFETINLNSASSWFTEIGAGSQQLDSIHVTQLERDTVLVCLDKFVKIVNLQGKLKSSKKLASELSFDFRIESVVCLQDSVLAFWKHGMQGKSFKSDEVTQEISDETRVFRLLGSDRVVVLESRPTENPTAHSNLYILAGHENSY

FLT3(D835V) = biological target: T6, FLT3(D835V) (Homo sapiens, UniProt P36888, D835V)
T6 construct: purchased Eurofins DiscoverX KINOMEscan (scanMAX 468)

WNK1 = biological target: T7, WNK1 (Homo sapiens, UniProt Q9H4A3)
T7 construct: purchased Eurofins DiscoverX KINOMEscan (scanMAX 468)

JNK2 = biological target: T8, JNK2 (Homo sapiens, UniProt P45984)
T8 construct: purchased Eurofins DiscoverX KINOMEscan (scanMAX 468)

NEK9 = biological target: T9, NEK9 (Homo sapiens, UniProt Q8TD19)
T9 construct: purchased Eurofins DiscoverX KINOMEscan (scanMAX 468)
T9 sequence (Q8TD19 whole entry): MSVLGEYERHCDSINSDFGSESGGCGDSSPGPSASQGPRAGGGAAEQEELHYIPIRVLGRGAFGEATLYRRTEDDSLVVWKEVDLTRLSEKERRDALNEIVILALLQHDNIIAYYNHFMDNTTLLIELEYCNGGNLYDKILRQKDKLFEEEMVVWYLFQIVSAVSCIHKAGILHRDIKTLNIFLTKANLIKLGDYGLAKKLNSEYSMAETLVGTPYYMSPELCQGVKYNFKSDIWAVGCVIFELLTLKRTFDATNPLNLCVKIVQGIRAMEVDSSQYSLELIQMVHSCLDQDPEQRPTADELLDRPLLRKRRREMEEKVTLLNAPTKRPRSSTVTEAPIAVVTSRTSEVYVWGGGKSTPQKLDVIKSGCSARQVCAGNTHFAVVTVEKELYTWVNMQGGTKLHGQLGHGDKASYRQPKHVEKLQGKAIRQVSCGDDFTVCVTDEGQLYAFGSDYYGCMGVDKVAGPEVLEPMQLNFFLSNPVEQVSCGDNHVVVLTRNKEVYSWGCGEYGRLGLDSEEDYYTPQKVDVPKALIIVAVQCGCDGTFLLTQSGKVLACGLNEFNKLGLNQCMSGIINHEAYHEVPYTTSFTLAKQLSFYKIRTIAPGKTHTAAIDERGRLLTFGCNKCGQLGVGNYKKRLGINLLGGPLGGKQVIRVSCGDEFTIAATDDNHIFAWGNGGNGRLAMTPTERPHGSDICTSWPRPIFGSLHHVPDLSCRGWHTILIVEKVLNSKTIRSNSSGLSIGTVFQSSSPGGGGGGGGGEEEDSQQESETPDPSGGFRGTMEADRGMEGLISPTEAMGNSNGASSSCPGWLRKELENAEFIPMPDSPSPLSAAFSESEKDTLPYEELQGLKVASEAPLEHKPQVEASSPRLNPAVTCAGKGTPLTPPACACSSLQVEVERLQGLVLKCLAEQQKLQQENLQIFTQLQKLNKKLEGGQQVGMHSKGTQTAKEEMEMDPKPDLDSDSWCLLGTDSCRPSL

LKB1 = biological target: T10, LKB1 (Homo sapiens, UniProt Q15831)
T10 construct: purchased Eurofins DiscoverX KINOMEscan (scanMAX 468)

PKAC-alpha = biological target: T11, PKAC-alpha (Homo sapiens, UniProt P17612)
T11 construct: purchased Eurofins DiscoverX KINOMEscan (scanMAX 468)

MRCKA = biological target: T12, MRCKA (Homo sapiens, UniProt Q5VT25)
T12 construct: purchased Eurofins DiscoverX KINOMEscan (scanMAX 468)

FLT1 = biological target: T13, FLT1 (Homo sapiens, UniProt P17948)
T13 construct: purchased Eurofins DiscoverX KINOMEscan (scanMAX 468)

HIPK2 = biological target: T14, HIPK2 (Homo sapiens, UniProt Q9H2X6)
T14 construct: purchased Eurofins DiscoverX KINOMEscan (scanMAX 468)

FRK = biological target: T15, FRK (Homo sapiens, UniProt P42685)
T15 construct: purchased Eurofins DiscoverX KINOMEscan (scanMAX 468)

DMPK2 = biological target: T16, DMPK2 (Homo sapiens, UniProt Q6DT37)
T16 construct: purchased Eurofins DiscoverX KINOMEscan (scanMAX 468)

HIPK1 = biological target: T17, HIPK1 (Homo sapiens, UniProt Q86Z02)
T17 construct: purchased Eurofins DiscoverX KINOMEscan (scanMAX 468)

AURKC = biological target: T18, AURKC (Homo sapiens, UniProt Q9UQB9)
T18 construct: purchased Eurofins DiscoverX KINOMEscan (scanMAX 468)

SRPK1 = biological target: T19, SRPK1 (Homo sapiens, UniProt Q96SB4)
T19 construct: purchased Eurofins DiscoverX KINOMEscan (scanMAX 468)
T19 sequence (Q96SB4 whole entry): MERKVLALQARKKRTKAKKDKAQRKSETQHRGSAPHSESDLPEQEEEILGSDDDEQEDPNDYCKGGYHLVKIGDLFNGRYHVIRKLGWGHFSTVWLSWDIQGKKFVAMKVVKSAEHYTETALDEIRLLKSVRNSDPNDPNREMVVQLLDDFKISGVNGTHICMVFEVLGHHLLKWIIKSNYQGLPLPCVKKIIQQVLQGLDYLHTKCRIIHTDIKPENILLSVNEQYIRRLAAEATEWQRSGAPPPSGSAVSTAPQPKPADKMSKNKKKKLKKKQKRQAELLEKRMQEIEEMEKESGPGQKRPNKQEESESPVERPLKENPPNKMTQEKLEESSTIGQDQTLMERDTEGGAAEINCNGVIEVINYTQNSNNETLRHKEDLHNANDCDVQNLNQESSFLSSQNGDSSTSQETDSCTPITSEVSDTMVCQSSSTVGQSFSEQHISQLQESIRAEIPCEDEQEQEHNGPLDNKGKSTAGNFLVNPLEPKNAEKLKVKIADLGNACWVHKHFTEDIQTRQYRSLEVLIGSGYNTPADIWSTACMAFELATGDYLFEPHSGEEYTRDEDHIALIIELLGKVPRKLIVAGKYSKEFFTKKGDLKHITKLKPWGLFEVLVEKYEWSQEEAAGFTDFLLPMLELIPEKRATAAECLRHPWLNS

CSNK2A1 = biological target: T20, CSNK2A1 (Homo sapiens, UniProt P68400)
T20 construct: purchased Eurofins DiscoverX KINOMEscan (scanMAX 468)

LRRK2(G2019S) = biological target: T21, LRRK2(G2019S) (Homo sapiens, UniProt Q5S007, G2019S)
T21 construct: purchased Eurofins DiscoverX KINOMEscan (scanMAX 468)

TAOK1 = biological target: T22, TAOK1 (Homo sapiens, UniProt Q7L7X3)
T22 construct: purchased Eurofins DiscoverX KINOMEscan (scanMAX 468)
T22 sequence (Q7L7X3 whole entry): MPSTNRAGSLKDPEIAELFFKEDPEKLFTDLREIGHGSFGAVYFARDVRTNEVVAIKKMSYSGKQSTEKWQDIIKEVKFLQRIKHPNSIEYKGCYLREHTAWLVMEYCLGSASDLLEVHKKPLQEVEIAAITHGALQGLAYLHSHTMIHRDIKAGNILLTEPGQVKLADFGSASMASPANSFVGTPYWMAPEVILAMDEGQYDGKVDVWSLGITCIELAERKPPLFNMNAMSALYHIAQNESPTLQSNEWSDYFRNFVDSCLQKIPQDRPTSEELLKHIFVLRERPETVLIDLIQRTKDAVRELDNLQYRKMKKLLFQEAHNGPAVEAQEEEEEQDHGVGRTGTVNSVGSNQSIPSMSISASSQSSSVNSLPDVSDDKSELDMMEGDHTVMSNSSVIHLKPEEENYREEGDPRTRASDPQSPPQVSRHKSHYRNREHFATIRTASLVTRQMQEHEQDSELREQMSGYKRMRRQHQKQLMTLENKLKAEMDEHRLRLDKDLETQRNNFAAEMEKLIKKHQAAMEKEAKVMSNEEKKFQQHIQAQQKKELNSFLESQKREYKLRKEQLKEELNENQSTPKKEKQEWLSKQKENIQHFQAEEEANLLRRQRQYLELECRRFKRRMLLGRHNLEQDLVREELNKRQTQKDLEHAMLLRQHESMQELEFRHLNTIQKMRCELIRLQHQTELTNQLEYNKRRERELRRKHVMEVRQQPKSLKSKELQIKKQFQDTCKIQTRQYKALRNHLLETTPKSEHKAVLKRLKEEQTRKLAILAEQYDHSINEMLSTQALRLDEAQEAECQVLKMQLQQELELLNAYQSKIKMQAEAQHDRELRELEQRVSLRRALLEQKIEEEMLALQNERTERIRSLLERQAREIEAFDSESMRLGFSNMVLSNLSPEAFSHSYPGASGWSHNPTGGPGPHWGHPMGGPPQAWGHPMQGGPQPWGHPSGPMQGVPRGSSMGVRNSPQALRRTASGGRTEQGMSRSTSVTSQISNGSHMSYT

EPHB2 = biological target: T23, EPHB2 (Homo sapiens, UniProt P29323)
T23 construct: purchased Eurofins DiscoverX KINOMEscan (scanMAX 468)

DRAK2 = biological target: T24, DRAK2 (Homo sapiens, UniProt O94768)
T24 construct: purchased Eurofins DiscoverX KINOMEscan (scanMAX 468)
T24 sequence (O94768 whole entry): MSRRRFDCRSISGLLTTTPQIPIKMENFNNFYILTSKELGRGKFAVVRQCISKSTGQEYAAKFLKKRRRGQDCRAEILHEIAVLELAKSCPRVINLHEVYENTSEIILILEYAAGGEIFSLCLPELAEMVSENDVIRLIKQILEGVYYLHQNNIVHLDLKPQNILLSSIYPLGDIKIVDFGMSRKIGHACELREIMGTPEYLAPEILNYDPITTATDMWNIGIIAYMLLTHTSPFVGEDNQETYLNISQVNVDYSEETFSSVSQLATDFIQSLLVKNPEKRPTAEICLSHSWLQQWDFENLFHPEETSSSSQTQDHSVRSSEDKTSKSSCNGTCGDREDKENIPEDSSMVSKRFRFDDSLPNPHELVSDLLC

TRKC = biological target: T25, TRKC (Homo sapiens, UniProt Q16288)
T25 construct: purchased Eurofins DiscoverX KINOMEscan (scanMAX 468)

SNARK = biological target: T26, SNARK (Homo sapiens, UniProt Q9H093)
T26 construct: purchased Eurofins DiscoverX KINOMEscan (scanMAX 468)

CAMK2B = biological target: T27, CAMK2B (Homo sapiens, UniProt Q13554)
T27 construct: purchased Eurofins DiscoverX KINOMEscan (scanMAX 468)

YANK2 = biological target: T28, YANK2 (Homo sapiens, UniProt Q9NY57)
T28 construct: purchased Eurofins (KINOMEscan, DiscoverX)

MARK4 = biological target: T29, MARK4 (Homo sapiens, UniProt Q96L34)
T29 construct: purchased Eurofins DiscoverX KINOMEscan (scanMAX 468)

FLT3(R834Q) = biological target: T30, FLT3(R834Q) (Homo sapiens, UniProt P36888, R834Q)
T30 construct: purchased Eurofins DiscoverX KINOMEscan (scanMAX 468)

MST2 = biological target: T31, MST2 (Homo sapiens, UniProt Q13188)
T31 construct: purchased Eurofins DiscoverX KINOMEscan (scanMAX 468)

PIM3 = biological target: T32, PIM3 (Homo sapiens, UniProt Q86V86)
T32 construct: purchased Eurofins DiscoverX KINOMEscan (scanMAX 468)

ROCK1 = biological target: T33, ROCK1 (Homo sapiens, UniProt Q13464)
T33 construct: purchased Eurofins DiscoverX KINOMEscan (scanMAX 468)

PDGFRB = biological target: T34, PDGFRB (Homo sapiens, UniProt P09619)
T34 construct: purchased Eurofins DiscoverX KINOMEscan (scanMAX 468)

AMPK-alpha1 = biological target: T35, AMPK-alpha1 (Homo sapiens, UniProt Q13131)
T35 construct: purchased Eurofins DiscoverX KINOMEscan (scanMAX 468)

TGFBR2 = biological target: T36, TGFBR2 (Homo sapiens, UniProt P37173)
T36 construct: purchased Eurofins DiscoverX KINOMEscan (scanMAX 468)

IRAK4 = biological target: T37, IRAK4 (Homo sapiens, UniProt Q9NWZ3)
T37 construct: purchased Eurofins DiscoverX KINOMEscan (scanMAX 468)

PIK3CA(M1043I) = biological target: T38, PIK3CA(M1043I) (Homo sapiens, UniProt P42336, M1043I)
T38 construct: purchased Eurofins DiscoverX KINOMEscan (scanMAX 468)

TNIK = biological target: T39, TNIK (Homo sapiens, UniProt Q9UKE5)
T39 construct: purchased Eurofins DiscoverX KINOMEscan (scanMAX 468)

KIT(V559D,T670I) = biological target: T40, KIT(V559D,T670I) (Homo sapiens, UniProt P10721, T670I/V559D)
T40 construct: purchased Eurofins DiscoverX KINOMEscan (scanMAX 468)

NIK = biological target: T41, NIK (Homo sapiens, UniProt Q99558)
T41 construct: purchased Eurofins DiscoverX KINOMEscan (scanMAX 468)

LZK = biological target: T42, LZK (Homo sapiens, UniProt O43283)
T42 construct: purchased Eurofins DiscoverX KINOMEscan (scanMAX 468)

ROS1 = biological target: T43, ROS1 (Homo sapiens, UniProt P08922)
T43 construct: purchased Eurofins DiscoverX KINOMEscan (scanMAX 468)

DCAMKL2 = biological target: T44, DCAMKL2 (Homo sapiens, UniProt Q8N568)
T44 construct: purchased Eurofins DiscoverX KINOMEscan (scanMAX 468)

T1 sequence (Q13237 whole entry): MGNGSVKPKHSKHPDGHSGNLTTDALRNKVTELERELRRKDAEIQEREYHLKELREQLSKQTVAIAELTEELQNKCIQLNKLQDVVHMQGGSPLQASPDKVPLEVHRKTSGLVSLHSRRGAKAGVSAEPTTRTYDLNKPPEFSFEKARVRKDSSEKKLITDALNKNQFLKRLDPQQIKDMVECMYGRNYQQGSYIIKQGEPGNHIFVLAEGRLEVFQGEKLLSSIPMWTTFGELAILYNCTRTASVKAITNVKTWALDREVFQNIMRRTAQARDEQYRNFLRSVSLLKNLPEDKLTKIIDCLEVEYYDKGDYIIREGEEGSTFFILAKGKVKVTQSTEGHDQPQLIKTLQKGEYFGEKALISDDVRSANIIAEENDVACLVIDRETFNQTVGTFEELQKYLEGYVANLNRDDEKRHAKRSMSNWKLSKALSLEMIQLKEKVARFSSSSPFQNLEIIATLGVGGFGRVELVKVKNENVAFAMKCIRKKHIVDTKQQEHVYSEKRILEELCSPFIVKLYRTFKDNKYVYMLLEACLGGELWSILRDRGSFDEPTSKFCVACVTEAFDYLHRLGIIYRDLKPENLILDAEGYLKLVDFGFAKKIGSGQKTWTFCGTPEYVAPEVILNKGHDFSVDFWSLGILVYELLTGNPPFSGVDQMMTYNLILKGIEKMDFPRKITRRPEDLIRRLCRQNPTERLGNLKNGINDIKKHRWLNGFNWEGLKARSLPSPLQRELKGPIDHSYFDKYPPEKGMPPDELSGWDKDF

## Cc1ccc(-n2cc(COc3cccc4cnc(Nc5cccc(Cl)c5)nc34)nn2)c([N+](=O)[O-])c1 [DB18]
PRKG2
  remaining binding at 1 µM: 100%
PRKG1
  remaining binding at 1 µM: 100%
PIK3CA(Q546K)
  remaining binding at 1 µM: 96%
PKAC-beta
  remaining binding at 1 µM: 100%
MAP4K5
  remaining binding at 1 µM: 100%
FLT3(D835V)
  remaining binding at 1 µM: 67%
WNK1
  remaining binding at 1 µM: 100%
JNK2
  remaining binding at 1 µM: 96%
NEK9
  remaining binding at 1 µM: 100%
LKB1
  remaining binding at 1 µM: 100%
PKAC-alpha
  remaining binding at 1 µM: 100%
MRCKA
  remaining binding at 1 µM: 100%
FLT1
  remaining binding at 1 µM: 100%
HIPK2
  remaining binding at 1 µM: 33%
FRK
  remaining binding at 1 µM: 83%
DMPK2
  remaining binding at 1 µM: 100%
HIPK1
  remaining binding at 1 µM: 19%
AURKC
  remaining binding at 1 µM: 100%
SRPK1
  remaining binding at 1 µM: 100%
CSNK2A1
  remaining binding at 1 µM: 75%
LRRK2(G2019S)
  remaining binding at 1 µM: 95%
TAOK1
  remaining binding at 1 µM: 100%
EPHB2
  remaining binding at 1 µM: 100%
DRAK2
  remaining binding at 1 µM: 100%
TRKC
  remaining binding at 1 µM: 59%
SNARK
  remaining binding at 1 µM: 100%
CAMK2B
  remaining binding at 1 µM: 100%
YANK2
  remaining binding at 1 µM: 100%
MARK4
  remaining binding at 1 µM: 100%
FLT3(R834Q)
  remaining binding at 1 µM: 87%
MST2
  remaining binding at 1 µM: 100%
PIM3
  remaining binding at 1 µM: 100%
ROCK1
  remaining binding at 1 µM: 100%
PDGFRB
  remaining binding at 1 µM: 100%
AMPK-alpha1
  remaining binding at 1 µM: 94%
TGFBR2
  remaining binding at 1 µM: 100%
IRAK4
  remaining binding at 1 µM: 100%
PIK3CA(M1043I)
  remaining binding at 1 µM: 100%
TNIK
  remaining binding at 1 µM: 100%
KIT(V559D,T670I)
  remaining binding at 1 µM: 96%
NIK
  remaining binding at 1 µM: 86%
LZK
  remaining binding at 1 µM: 100%
ROS1
  remaining binding at 1 µM: 100%
DCAMKL2
  remaining binding at 1 µM: 100%
